Data on 19 compounds can be found in ChEMBL document CHEMBL1134573, “Utilization of a peptide lead for the discovery of a novel PTP1B-binding motif” (J Med Chem, 2001).

Each structure is given as a SMILES string. Starred links: 1 amine or outer side, 2 acyl side, 3 side chain; linkers in the order of their positions; H or OH if unused. Non-standard residues stand in square brackets, D forms with d. Residues, ends and D or L forms follow the SMILES beside them. X1 = O=C(O)COc1ccc(C[C@H](N[*:1])C(=O)[*:2])cc1C(=O)O; F2Pmp = N[C@@H](Cc1ccc(C(F)(F)P(=O)(O)O)cc1)C(=O)O

This assay has as its target T1, Tyrosine-protein phosphatase non-receptor type 1 (Homo sapiens, UniProt P18031).
T1 sequence (P18031 whole entry): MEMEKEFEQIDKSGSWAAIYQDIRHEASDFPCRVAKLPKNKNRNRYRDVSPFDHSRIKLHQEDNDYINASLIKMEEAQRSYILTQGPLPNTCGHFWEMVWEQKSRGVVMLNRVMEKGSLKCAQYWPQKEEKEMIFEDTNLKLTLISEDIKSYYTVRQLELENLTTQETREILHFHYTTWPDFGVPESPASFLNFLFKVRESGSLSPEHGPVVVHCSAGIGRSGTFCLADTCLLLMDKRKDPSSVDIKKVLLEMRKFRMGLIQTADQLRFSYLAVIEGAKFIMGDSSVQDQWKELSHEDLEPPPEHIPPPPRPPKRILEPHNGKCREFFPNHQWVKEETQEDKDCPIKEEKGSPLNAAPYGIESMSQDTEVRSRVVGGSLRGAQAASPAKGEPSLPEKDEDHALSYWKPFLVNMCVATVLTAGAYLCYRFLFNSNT
Briefly: Inhibitory activity against human Protein-tyrosinephosphatase 1B (PTP1B).
For `COC(=O)c1ccc2c(C(=O)O)c(OC)ccc2c1`, half-maximal inhibition (IC50) was put at 2.8 mM. For `O=C(O)c1ccc2cc(OC(F)(F)C(=O)O)ccc2c1`, half-maximal inhibition (IC50) was put at 9.4 mM. For the compound `O=C(O)c1ccc2cc(C(F)(F)P(=O)(O)O)ccc2c1`, the affinity corresponds to a Ki of 22 µM. Still for that read-out and setting: as for `O=C(O)c1ccc2c(C(=O)O)cccc2c1`, the figure is 31 µM.

As for `O=C(O)c1ccc2cc(C(=O)O)ccc2c1`, the IC50 – broadly, the concentration that gives 50% inhibition – was above 4 mM. In the case of `O=S(=O)(O)c1ccc2c(S(=O)(=O)O)cc(S(=O)(=O)O)cc2c1`, the IC50 is above 4 mM. In turn, `O=C(O)COc1ccc2cc(C(=O)O)ccc2c1` gave an IC50 of 9.4 mM. Consider `NC(=O)[C@H](CCC(=O)O)NC(=O)c1ccc2c(C(=O)O)c(OCC(=O)O)ccc2c1`, for which half-maximal inhibition (IC50) required 3.8 mM.

With `O=C(O)COc1ccc2cc(C(=O)O)ccc2c1C(=O)O`, the Ki (commonly a dissociation constant, usually derived from enzyme kinetics or from competition with a known ligand) came to 900 µM. `O=S(=O)([O-])c1cccc2c(S(=O)(=O)[O-])cccc12.[Na+].[Na+]` had an IC50 of 28 mM. As for `O=C(O)c1ccc2ccc(C(=O)O)cc2c1`, the IC50 is above 3.2 mM. Regarding `O=C(O)COc1cc2ccc(C(=O)O)cc2cc1C(=O)O`, the affinity, expressed as Ki, was 250 µM. As to `COc1ccc2cc(C(=O)O)ccc2c1C(=O)O`, the half-maximal inhibitory concentration (IC50) came out at 20 mM. `CS(=O)(=O)Nc1cccc2cc(S(=O)(=O)O)ccc12` displayed an IC50 of 29 mM. In turn, `CC(=O)N[C@@H](CC(=O)O)C(=O)N[C@@H](C)C(=O)N[C@@H](CC(=O)O)C(=O)N[C@@H](CCC(=O)O)C(=O)N[C@@H](Cc1ccc(OCC(=O)O)c(C(=O)O)c1)C(=O)N[C@@H](CC(C)C)C(N)=O` (Ac-DADE[X1]L-NH2) yielded a Ki of 3.6 µM. On to `O=C(O)c1ccc2c(C(=O)O)c(O)ccc2c1`, for which the IC50 worked out at 12 mM.

For `NC(=O)[C@@H](CCC(=O)O)NC(=O)c1ccc2cc(C(F)(F)P(=O)(O)O)ccc2c1`, the inhibition constant (Ki) was determined as 12 µM. The compound `O=S(=O)(O)c1ccc2cc(S(=O)(=O)O)ccc2c1` gave an IC50 above 4 mM. For `CC(=O)N[C@@H](CC(=O)O)C(=O)N[C@@H](C)C(=O)N[C@@H](CC(=O)O)C(=O)N[C@@H](CCC(=O)O)C(=O)N[C@@H](Cc1ccc(C(F)(F)P(=O)(O)O)cc1)C(=O)N[C@@H](CC(C)C)C(N)=O` (Ac-DADE[F2Pmp]L-NH2), the Ki came to 0.2 µM.
